Experimental data reported in US9033962B2, “Photodynamic therapy including light pretreatment” (Case Western Reserve University, priority 2010, dated 2015).

Assays:
[1] = used topically on skin lesions; cited from earlier work
[2] = human skin 1-2 hours after Pc 4 applied, no light pretreatment; cited from earlier work
[3] = Pc 4 fluorescence after topical application on mouse ear skin, with or without an initial light dose; type: in vivo; details: Pc 4 0.1 mg/mL topical on mouse ear skin, initial small light dose 50 J/cm2, versus 15 minutes of topical application without light
From the text: FIG. 1 is a pair of photographs showing that photoirradiation of mouse ear skin to which Pc 4 had been topically applied facilitates Pc 4 penetration into the skin.
(§1) When treating skin, the area of skin can be covered with an opaque dressing during the interval of time between the first and second photoirradiation to prevent further activation of the photosensitizer by ambient light. While not intending to be bound by theory, the first photoirradiation may increase the ability of the photosensitizing agent to penetrate tissue as a result of breaking up aggregates of the photosensitizing agent and/or by disrupting the tissue barrier as a result of the release of reactive oxygen species. Accordingly, this first photoirradiation can also be referred to as the disruptive photoirradiation, or light pretreatment. The ability of light pretreatment to facilitate the penetration of photosensitizer to lower levels of skin is illustrated by FIGS. 1 and 2.

[4] = Confocal imaging of skin sections from psoriasis patients with lesions treated with Pc 4 versus Pc 4 plus red light; type: in vivo, human; details: for location of Pc 4 fluorescence in skin: psoriasis lesions
Method: FIG. 2 includes 4 sets of images obtained from confocal imaging of skin sections from two psoriasis patients with lesions to which Pc 4 (0.1 mg/ml) versus Pc 4 (0.1 mg/ml) plus 100 J/cm2 of red light (675 nm) was applied.
as §1
A variety of methods are available to determine the amount of energy and/or time necessary for an effective amount of the photosensitizer to reach the desired tissue level, such as a lower level of the skin, under the conditions being used. Such methods can be referred to as photosensitizer localization assays. For example, a biopsy can be obtained after administration of the photosensitizer from which the photosensitizer is chemically extracted and quantified using conventional analytic techniques such as UV spectrophotometry. The photosensitizer (e.g., Pc 4) can also be identified from biopsy samples using confocal imaging of the fluorescence of the photosensitizer either with or without the use of additional labels targeted at specific intracellular components (e.g., DAPI, mitotracker). Such techniques can be helpful to determine therapeutically effective doses, and also to evaluate non-responding subjects for possible poor photosensitizer permeation through the skin or other complications.

[5] = Time interval for delivery of photosensitizer through skin, with or without first photoirradiation; type: in vivo; details: after a first photoirradiation
From the text: Once the first photoirradiation has been delivered to the area of tissue, a sufficient interval of time should be allowed to pass for an effective amount of the photosensitizer to further penetrate the tissue. In the case of skin tissue, a sufficient interval of time is preferably provided to allow the photosensitizer to reach the lower levels of skin such as the basal epidermis and/or the papillary dermis, which is the upper layer of the dermis immediately beneath the epidermis. The particular layer of skin targeted can vary depending on the disease being treated. Examples of sufficient intervals include 1 hour, 30 minutes, 10 minutes, 5 minutes, or any other interval within this range. In addition to providing sufficient time for the photosensitizer to penetrate the skin to the desired level, care should also be taken to avoid providing too much time, which can result in passage of significant amounts of the photosensitizer beyond the intended site.

For `CN(C)CCC[Si](C)(C)O[Si]1(O)n2c3c4ccccc4c2N=C2N=C(N=c4c5ccccc5c(n41)=NC1=NC(=N3)c3ccccc31)c1ccccc12` (stereo not shown) [Pc 4, HOSiPcOSi(CH3)2(CH2)3N(CH3)2], the safety profile [1] is given as “excellent safety profile”, the “absorption in the epidermis” value [2] is given as “significant absorption” and the “absorption in the papillary dermis” value [2] is given as “minimal to no absorption”. The “depth of Pc 4 in skin (Pc 4 fluorescence)” value [3] was “enhanced”, the “location of Pc 4 fluorescence in skin” value ([4]; Pc 4 0.1 mg/ml alone, after more than one hour of application) was “limited to the stratum corneum” and the “location of Pc 4 fluorescence in skin” value ([4]; Pc 4 0.1 mg/ml for 1 hour followed by 100 J/cm2 red light (675 nm)) was “not only in the stratum corneum but also in the epidermis and upper dermis”. The “Pc 4 fluorescence in the cells within the epidermis and upper dermis (higher magnification)” value ([4]; Pc 4 + light (100 J/cm2, 675 nm)) was “there is indeed Pc 4 fluorescence”, the “Pc 4 fluorescence in the cells within the epidermis and upper dermis (higher magnification)” value ([4]; Pc 4 alone) was “not observed” and the “absorption of Pc 4 into the epidermis and upper dermis” value ([4]; initial dose of light on psoriatic lesions in humans to which Pc 4 has been applied) was “facilitates the absorption”. For the same compound, the “time interval needed for delivery through skin” value [5] was “fifteen”.
